Laboratory results reported in patent US4925861A, “Carboxystyrene derivatives and drugs containing them as effective ingredients” (Mitsubishi Kasei Corporation, priority 1987, dated 1990).

Experiments:
[1] = system: SRS extracted from guinea pig lung; test: in vitro SRS antagonistic activity (contraction of isolated guinea pig ileum); format: cell-based; details: Cavia porcellus, concentration reducing the control contraction (one unit of SRS) of guinea pig ileum by 50%, Tyrode's solution, 37° C., mepyramine and atropine present, read-out: Anti-SRS Activity (Minimal Effective Concentration)
Protocol: The terminal ileum was taken from a male Hartley guinea pig (200 to 450 g) and the lumen was washed. The ileum was set in 5 ml of a tissue bath containing Tyrode's solution: NaCl 136 mM, KCl 2.7 mM, NaHCO3 11.9 mM, MgCl2 1.05 mM, CaCl2 1.8 mM, NaH2 PO4 0.4 mM, and glucose 5.6 mM. The temperature in the bath was kept at 37° C. and the bath was aerated by 95% oxygen/5% carbon dioxide. The buffer solution also contained 10^-7 g/ml mepyramine and 5×10^-8 g/ml atropine in order to prevent the contraction caused by histamine and acetylcholine. Isometric measurement was done by an […] transducer (TD-112S, NIPPON KODEN, Japan) and change of tension in gram was recorded in a recticorder (RTG-4124, NIPPON KODEN, Japan). A tension of 0.5 g was passively loaded on the ileum. Thus, the contraction response of the ileum to SRS extracted from guinea pig lung was observed. The tonic contraction corresponding to one unit of SRS which corresponded to 5 ng of histamine was used as control. Varying concentrations of each compound to be tested were added to the tissue bath. The concentration of each compound to be tested which reduced the contraction of the control by 50%, IC50, was shown as a minimal effective concentration in M in Table 3.

[2] = target: Phospholipase A2 from Porcine Pancreas (Sus scrofa, UniProt P00592); test: in vitro phospholipase inhibiting activity (DPybPC fluorescence); details: pH 8, read-out: Phospholipase A2 Inhibition (%)
Sequence of Phospholipase A2 from Porcine Pancreas (P00592 23-146): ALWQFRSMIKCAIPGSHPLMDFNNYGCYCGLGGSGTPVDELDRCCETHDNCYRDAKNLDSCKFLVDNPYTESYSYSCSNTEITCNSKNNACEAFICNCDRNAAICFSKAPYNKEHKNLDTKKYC

[3] = Acute toxicity, oral, mice; details: mouse, in vivo, suspension in 1% tragacanth, ddy male mice, observed for 7 days
From the text: A suspension of the compound according to the present invention in 1% tragacanth solution was orally administered to a group of 4 to 5 ddy male mice of 6 week old.

Row | IC50 [1] | inhibition at 10 µM [2] | Compound | LD50 at 168 h [3]
1 | 0.05 µM |  | O=C(O)c1cccc(C=Cc2ccc3ccccc3n2)c1 [Compound 3] | 
2 |  | 74% | CC(C)c1csc(C=Cc2cccc(C(=O)NCC3(C(=O)O)CCCCC3)c2)n1 [Compound 22, 3-(N-(3-(2-(4-isopropyl-2-thiazolyl))ethenyl)benzoyl)amino-2-spiro-l'-cyclohexanepropionic acid] | 
3 | 0.05 µM |  | CC(C)c1csc(C=Cc2cccc(C(=O)O)c2)n1 [Compound 5, 3-(2-(4-isopropyl-2-thiazolyl))ethenylbenzoic acid] | 
4 |  |  | CCCc1csc(C=Cc2cccc(C(=O)NCC(CC)(CC)C(=O)O)c2)n1 [Compound 19, 3-(N-(3-(2-(4-propyl-2-thiazolyl))ethenyl)benzoyl)amino-2,2-diethylpropionic acid] | > 1000 mg/kg
5 | 10 µM |  | O=C(O)CCCNC(=O)c1cccc(C=Cc2nc3ccccc3s2)c1 [Compound 6, 4-(N-(3-(2-(2-benzthiazolyl))ethenyl)benzoyl)aminobutyric acid] | 
6 | 0.2 µM |  | O=C(O)c1cccc(C=Cc2nc3ccccc3s2)c1 [Compound 1, 3-(2-(2-benzthiazolyl))ethenylbenzoic acid] | 
7 | 0.02 µM |  | CCCc1csc(C=Cc2cccc(C(=O)O)c2)n1 [Compound 2] | 

Row | Compound | IC50 [1] | inhibition at 10 µM [2] | LD50 at 168 h [3]
8 | CC(C)(CNC(=O)c1cccc(C=Cc2nc3ccccc3s2)c1)C(=O)O [Compound 7] | 0.05 µM |  | > 700 mg/kg
